Test results reported in patent US20080132539A1, “Hydroxamic Acid Derivative And Age Generation Inhibitor Containing The Derivative” (priority 2003, published 2008).

Test system: Maillard reaction (lysozyme / fructose, dimer formation)
Experiment: Maillard reaction-inhibiting effects (lysozyme dimer formation with fructose, SDS-PAGE densitometry)
Assay type: biochemical
Conditions: 10 mg/mL lysozyme, 200 mM fructose, pH 7.4, 37° C., 4 days, dimer formation inhibition rate
Method: This Example examined Maillard reaction-inhibiting effects using, as test compounds, the compounds produced in the above-described Examples and the commercially available substances arginine hydroxamate (Compound No. 111), tyrosine hydroxamate (Compound No. 112), and tryptophan hydroxamate (Compound No. 113). More specifically, 10 mg/mL lysozyme, 200 mM fructose, and each of the above-described test compounds dissolved in a 0.4 mM sodium phosphate buffer (pH 7.4) so as to provide a concentrations of 0.1, 0.3, 1, or 3 mM were incubated at 37° C. for 4 days. After the incubation, the samples were subjected to SDS-PAGE, stained with Coomassie Brilliant Blue R-250, and quantitated for the formed dimmers using a densitometer. The Maillard reaction-inhibiting activity was defined as the dimmer formation inhibition rate of a test compound calculated on the basis that the amount of dimmer is 100% in the absence of the test compound, using, as blank, the amount of dimer in the absence of fructose and the test compound.

[1] = test compound concentration 0.1 mM
[2] = test compound concentration 0.3 mM
[3] = test compound concentration 1 mM
[4] = test compound concentration 3 mM

SMILES	Maillard reaction-inhibiting activity (%) [1]	Maillard reaction-inhibiting activity (%) [2]	Maillard reaction-inhibiting activity (%) [3]	Maillard reaction-inhibiting activity (%) [4]
CCCN(CCC)c1ccc(C[C@H](N)C(=O)NO)cc1 [Compound No. 38, (S)-2-amino-3-(4-dipropylamino-1-phenyl)-N-hydroxypropionamide]	100%	100%	100%	100%
N[C@@H](Cc1ccc([N+](=O)[O-])cc1)C(=O)NO [Compound No. 40, (S)-2-amino-3-(4-nitrophenyl)-N-hydroxypropionamide]	37%	49%	96%	100%
CC(C)(C)Cn1c(CC[C@H](N)C(=O)NO)nc2ccccc21 [Compound No. 71, (S)-2-amino-N-hydroxy-4-[1-(2,2-dimethylpropyl)-1H-benzimidazol-2-yl]butyramide]	71%	97%	98%	99%
CC(C)Cn1c(CC[C@H](N)C(=O)NO)nc2ccccc21 [Compound No. 72, (S)-2-amino-N-hydroxy-4-(1-isobutyl-1H-benzimidazol-2-yl)butyramide]	53%	94%	100%	101%
N[C@@H](CCc1nc2ccccc2n1Cc1ccc(F)cc1)C(=O)NO [Compound No. 73, (S)-2-amino-N-hydroxy-4-[1-(4-fluorobenzyl)-1H-benzimidazol-2-yl]butyramide]	94%	98%	98%	100%
CC(C)(C)c1ccc(Cn2c(CC[C@H](N)C(=O)NO)nc3ccccc32)cc1 [Compound No. 74, (S)-2-amino-N-hydroxy-4-[1-(4-t-butylbenzyl)-1H-benzimidazol-2-yl]butyramide]	98%	99%	101%	100%
N[C@@H](CCc1nc2ccccc2n1C1CCCCC1)C(=O)NO [Compound No. 75, (S)-2-amino-N-hydroxy-4-(1-cyclohexyl-1H-benzimidazol-2-yl)butyramide]	82%	100%	100%	100%
N[C@@H](CCc1nc2ccccc2n1C1CCOCC1)C(=O)NO [Compound No. 76, (S)-2-amino-N-hydroxy-4-[1-(tetrahydropyran-4-yl)-1H-benzimidazol-2-yl]butyramide]	13%	65%	95%	98%
Cc1cc2nc(CC[C@H](N)C(=O)NO)n(Cc3ccc(C(C)(C)C)cc3)c2cc1C [Compound No. 85, (S)-2-amino-4-[1-(4-t-butylbenzyl)-5,6-dimethyl-1H-benzimidazol-2-yl]-N-hydroxybutyramide]	99%	100%	98%	98%
CCCn1c(CC[C@H](N)C(=O)NO)nc2cc(C)c(C)cc21 [Compound No. 94, (S)-2-amino-4-(5,6-dimethyl-1-propyl-1H-benzimidazol-2-yl)-N-hydroxybutyramide]	12%	83%	100%	102%
CCCCCn1c(CC[C@H](N)C(=O)NO)nc2cc(Cl)c(Cl)cc21 [Compound No. 96, (S)-2-amino-4-(5,6-dichloro-1-pentyl-1H-benzimidazol-2-yl)-N-hydroxybutyramide]	99%	103%	104%	104%
CCCn1c(CC[C@H](NCC2CCCCC2)C(=O)NO)nc2ccccc21 [Compound No. 97, (S)-2-(cyclohexylmethyl-amino)-4-(1-propyl-1H-benzimidazol-2-yl)-N-hydroxybutyramide]	96%	98%	98%	98%
CC(C)(C)c1ccc(COc2ccc(C[C@H](N)C(=O)NO)cc2)cc1 [Compound No. 99, (S)-2-amino-3-[4-(4-t-butylbenzyloxy)phenyl]-N-hydroxypropionamide]	95%	95%	99%	101%
N[C@@H](Cc1ccc(OCc2ccccc2-c2ccccc2)cc1)C(=O)NO [Compound No. 100, (S)-2-amino-3-[4-(2-phenylbenzyloxy)phenyl]-N-hydroxypropionamide]	93%	96%	96%	97%
N[C@@H](Cc1ccc(OCc2ccc([N+](=O)[O-])cc2)cc1)C(=O)NO [Compound No. 101, (S)-2-amino-3-[4-(4-nitrobenzyloxy)phenyl]-N-hydroxypropionamide]	102%	102%	102%	98%
N[C@@H](Cc1ccc(OCc2ccc(F)cc2F)cc1)C(=O)NO [Compound No. 102, (S)-2-amino-3-[4-(2,4-difluorobenzyloxy)phenyl]-N-hydroxypropionamide]	78%	88%	94%	95%
N#Cc1ccc(COc2ccc(C[C@H](N)C(=O)NO)cc2)cc1 [Compound No. 103, (S)-2-amino-3-[4-(4-cyanobenzyloxy)phenyl]-N-hydroxypropionamide]	89%	95%	100%	97%
CCCCCn1cc(C[C@H](N)C(=O)NO)c2ccccc21 [Compound No. 109, (S)-2-amino-3-(1-pentyl-1H-indol-3-yl)-N-hydroxypropionamide]	104%	105%	104%	103%
CCCCCn1cc(C[C@@H](N)C(=O)NO)c2ccccc21 [Compound No. 110, (R)-2-amino-3-(1-pentyl-1H-indol-3-yl)-N-hydroxypropionamide]	96%	103%	101%	101%
